Measurements published in US20010039287A1, “AROMATIC SULFONE HYDROXAMIC ACID METALLOPROTEASE INHIBITOR” (priority 1997, published 2001).
pIC50: −log10 of the molar value. Counter-ions that a name gives are not always drawn. Like-named read-outs stand apart in the source and are kept apart here.

What was measured:
Assay in all cases: biochemical
recombinant human MMP-13 = recombinant human MMP-13 (Homo sapiens, UniProt P45452)
recombinant human MMP-1 = biological target: T1, recombinant human MMP-1 (Homo sapiens, UniProt P03956); conditions: read-out: MMP-1 IC50
T1 construct: made in house; host or cells: transfected HT-1080 cells (provided by Dr. Harold Welgus, Washington University)
T1 sequence (P03956 100-469): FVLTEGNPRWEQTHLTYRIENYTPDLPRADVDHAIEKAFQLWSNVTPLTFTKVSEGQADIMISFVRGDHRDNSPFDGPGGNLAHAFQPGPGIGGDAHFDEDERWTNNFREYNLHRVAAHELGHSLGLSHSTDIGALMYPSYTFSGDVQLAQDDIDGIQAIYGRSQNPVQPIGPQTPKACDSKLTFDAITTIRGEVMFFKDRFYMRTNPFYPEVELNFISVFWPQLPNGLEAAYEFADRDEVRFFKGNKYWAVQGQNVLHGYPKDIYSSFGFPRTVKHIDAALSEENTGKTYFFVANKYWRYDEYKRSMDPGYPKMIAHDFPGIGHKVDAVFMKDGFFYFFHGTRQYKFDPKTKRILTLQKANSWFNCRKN

recombinant human MMP-2 = biological target: T2, recombinant human MMP-2 (Homo sapiens, UniProt P08253); conditions: read-out: MMP-2 IC50
T2 sequence (P08253 110-660): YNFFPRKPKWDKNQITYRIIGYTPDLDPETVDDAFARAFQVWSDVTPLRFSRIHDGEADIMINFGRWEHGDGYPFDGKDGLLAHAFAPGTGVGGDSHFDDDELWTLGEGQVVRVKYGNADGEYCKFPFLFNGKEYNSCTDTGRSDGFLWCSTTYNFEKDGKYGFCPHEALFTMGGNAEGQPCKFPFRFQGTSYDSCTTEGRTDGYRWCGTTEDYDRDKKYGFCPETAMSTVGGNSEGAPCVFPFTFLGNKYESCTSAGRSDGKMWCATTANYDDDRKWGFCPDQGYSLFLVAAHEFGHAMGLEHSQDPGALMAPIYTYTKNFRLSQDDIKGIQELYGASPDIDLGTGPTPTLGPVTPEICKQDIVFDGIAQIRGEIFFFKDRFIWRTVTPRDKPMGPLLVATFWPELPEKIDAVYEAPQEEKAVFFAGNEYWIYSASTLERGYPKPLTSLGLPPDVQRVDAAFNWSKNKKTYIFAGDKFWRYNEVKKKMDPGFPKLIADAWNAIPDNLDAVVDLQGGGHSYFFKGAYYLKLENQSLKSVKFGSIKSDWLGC

[1] = Inhibition Table B, read-out: MMP-13 IC50
[2] = Inhibition Table A, read-out: MMP-13 IC50

Row | Structure (SMILES) | pIC50 (recombinant human MMP-13; [1]) | pIC50 (recombinant human MMP-1; Inhibition Table B) | pIC50 (recombinant human MMP-2; Inhibition Table B) | other results
1 | Nc1ccc(Sc2ccc(S(=O)(=O)C3(C(=O)NO)CCOCC3)cc2)cc1 [Example 120, 4-[[4-[(4-aminophenyl)thio]phenyl]-sulfonyl]tetrahydro-N-hydroxy-2H-pyran-4-carboxamide] | 9.40 | 5.40 | 9.40 | 
2 | O=Cc1ccccc1-c1ccc(S(=O)(=O)C2(C(=O)NO)CCOCC2)cc1 [Example 230] | < 7.00 | < 5.00 | < 7.00 | 
3 | CC(=O)N1CCC(C(=O)NO)(S(=O)(=O)c2ccc(Oc3ccc4c(c3)OCO4)cc2)CC1 [Example 37, 1-acetyl-4-[[4-(1,3-benzodioxol-5-yloxy)phenyl]sulfonyl]-N-hydroxy-4-piperidinecarboxamide, Monohydrochloride] | 9.52 | 6.00 | 9.70 | 
4 | O=Cc1ccc(-c2ccc(S(=O)(=O)C3(C(=O)NO)CCOCC3)cc2)cc1 [Example 231] | > 9.00 | 6.19 | > 9.00 | 
5 | C#CCN1CCC(C(=O)NO)(S(=O)(=O)c2ccc(Oc3cc(OC)cc(OC)c3)cc2)CC1 [Example 39, 4-[[4-(3,5-dimethoxyphenoxy)phenyl]sulfonyl]-N-hydroxy-1-(2-propynyl)-4-piperidinecarboxamide, Monohydrochloride] | 7.61 | < 5.00 | 6.64 | 
6 | Cc1ccc(Oc2ccc(S(=O)(=O)C3(C(=O)NO)CCOCC3)cc2)cn1 [Example 97, Tetrahydro-N-hydroxy-4-[[4-[(6-methyl-3-pyridinyl)oxy]phenyl]-sulfonyl]-2H-pyran-4-carboxamide, Monohydrochloride] | 7.78 | 5.40 | 8.09 | 
7 | O=C(C1CCCCC1)N1CCN(c2ccc(S(=O)(=O)C3(C(=O)NO)CCOCC3)cc2)CC1 [Example 200] | 7.76 | < 5.00 | 7.62 | 
8 | O=C(NO)C1(S(=O)(=O)c2ccc(Sc3ccc(Cl)cc3)cc2)CCOCC1 [Example 25] |  |  |  | pIC50 (recombinant human MMP-13; [2]): 8.52; pIC50 (recombinant human MMP-1; Inhibition Table A): < 5.00; pIC50 (recombinant human MMP-2; Inhibition Table A): 8.59
9 | O=C(NOC1CCCCO1)C1(S(=O)(=O)c2ccc(F)cc2)CCOCC1 (centres unmarked) [Example 55, 4-[(4-fluorophenyl)-sulfonyl]tetrahydro-N-[(tetrahydro-2H-pyran-2-yl)oxy]-2H-pyran-4-carboxamide] | 9.52 | 5.92 | 10.00 | 
10 | O=C(C1CCc2ccccc2C1)N1CCN(c2ccc(S(=O)(=O)C3(C(=O)NO)CCOCC3)cc2)CC1 (centres unmarked) [Example 201] | 7.87 | < 5.00 | 7.65 | 
11 | CN(c1ccccc1)c1ccc(S(=O)(=O)C2(C(=O)NO)CCNCC2)cc1 [Example 92, N-hydroxy-4-[[4-(methylphenylamino)phenyl]sulfonyl]-4-piperidinecarboxamide, Monohydrochloride] | 5.61 | < 5.00 | 5.74 | 
12 | O=C(NO)C1(S(=O)(=O)c2ccc(Oc3cc(F)c(F)cc3F)cc2)CCOCC1 [Example 58, Tetrahydro-N-hydroxy-4-[[4-(2,4,5-trifluorophenoxy)phenyl]-sulfonyl]-2H-pyran-4-carboxamide] | 7.52 | < 5.00 | 7.08 | 
13 | COc1ccc(Oc2ccc(S(=O)(=O)C3(C(=O)NO)CCOCC3)cc2)cc1 [Example 64] | 9.82 | 5.83 | > 10.00 | 
14 | COc1ccc(Sc2ccc(S(=O)(=O)C3(C(=O)NO)CCSCC3)cc2)cc1 [Example 51, Tetrahydro-N-hydroxy-4-[[4-[(4-methoxypheny)thio]phenyl]sulfonyl]-2H-thiopyran-4-carboxamide] | 8.89 | 5.26 | 9.15 | 
15 | O=C(C1CCN(c2ccc(S(=O)(=O)C3(C(=O)NO)CCOCC3)cc2)CC1)N1CCCC1 [Example 179] | 7.00 |  |  | 
16 | O=C(NO)C1(S(=O)(=O)c2ccc(Sc3ccc(Cl)c(Cl)c3)cc2)CCOCC1 [Example 60] | 6.83 | < 5.00 | 7.19 | 
17 | O=C(NO)C1(S(=O)(=O)c2ccc(Oc3ccccc3)cc2)CCN(CC2CC2)CC1 [Example 29] |  |  |  | pIC50 (recombinant human MMP-13): 9.52; pIC50 (recombinant human MMP-1; Inhibition Table A): < 5.00; pIC50 (recombinant human MMP-2; Inhibition Table A): 9.82
18 | C[C@@H]1CN(C(=O)C2CCN(c3ccc(S(=O)(=O)C4(C(=O)NO)CCOCC4)cc3)CC2)C[C@H](C)O1 [Example 176] |  | < 5.00 |  | 

Row | Structure (SMILES) | pIC50 (recombinant human MMP-13; [1]) | pIC50 (recombinant human MMP-1; Inhibition Table B) | pIC50 (recombinant human MMP-2; Inhibition Table B) | other results
19 | C=CCN1CCC(C(=O)NO)(S(=O)(=O)c2ccc(Sc3ccccc3)cc2)CC1 [Example 28] |  |  |  | pIC50 (recombinant human MMP-13; [2]): > 10.00; pIC50 (recombinant human MMP-1; Inhibition Table A): 6.11; pIC50 (recombinant human MMP-2; Inhibition Table A): > 10.00
20 | CN1CCC(C(=O)NO)(S(=O)(=O)c2ccc(Oc3ccccc3)cc2)CC1 [Example 14] |  |  |  | pIC50 (recombinant human MMP-13; [2]): 10.00; pIC50 (recombinant human MMP-1; Inhibition Table A): 6.33; pIC50 (recombinant human MMP-2; Inhibition Table A): > 10.00
21 | CC(=O)N1CCC(Oc2ccc(S(=O)(=O)C3(C(=O)NO)CCOCC3)cc2)CC1 [Example 107, 4-[[4-[(1-acetyl-4-piperidinyl)oxy]phenyl]-sulfonyl]tetrahydro-N-hydroxy-2H-pyran-4-carboxamide] | 8.22 | < 5.00 | 7.92 | 
22 | O=C(NO)C1(S(=O)(=O)c2ccc(Oc3ccc(OCc4ccccc4)cc3)cc2)CCOCC1 [Example 72, tetrahydro-N-hydroxy-4-[[4-[4-[(phenylmethyl)oxy]phenoxy]-phenyl]-sulfonyl]-2H-pyran-4-carboxamide] | 9.52 | 5.68 | > 10.00 | 
23 | O=C(NO)C1(S(=O)(=O)c2ccc(-c3ccc4ccccc4c3)cc2)CCOCC1 [Example 227] | > 9.00 | < 5.00 | > 9.00 | 
24 | O=C(NCc1ccncc1)C1CCN(c2ccc(S(=O)(=O)C3(C(=O)NO)CCOCC3)cc2)CC1 [Example 195] |  | 5.00 | 7.00 | 
25 | O=C(C1CCCN(c2ccc(S(=O)(=O)C3(C(=O)NO)CCOCC3)cc2)C1)N1CCOCC1 (centres unmarked) [Example 140] |  |  | 6.00 | 
26 | O=C(Nc1ccc(S(=O)(=O)C2(C(=O)NO)CCNCC2)cc1)c1ccccc1 [Example 8] |  |  |  | pIC50 (recombinant human MMP-13; [2]): 7.62; pIC50 (recombinant human MMP-1; Inhibition Table A): < 5.00
27 | CNC(=O)C1CCCN(c2ccc(S(=O)(=O)C3(C(=O)NO)CCOCC3)cc2)C1 (centres unmarked) [Example 139] |  |  | 6.00 | 
28 | O=C(C1CCCN(c2ccc(S(=O)(=O)C3(C(=O)NO)CCOCC3)cc2)C1)N1CCCC2CCCCC21 (centres unmarked) [Example 170] |  | 5.00 |  | 
29 | O=C(CS(=O)(=O)c1ccc(NC(=O)c2ccccc2)cc1)NO [Example 7] |  |  |  | pIC50 (recombinant human MMP-1; Inhibition Table A): < 5.00; pIC50 (recombinant human MMP-2; Inhibition Table A): 8.74
30 | O=C(NC1CCCCCC1)C1CCN(c2ccc(S(=O)(=O)C3(C(=O)NO)CCOCC3)cc2)CC1 [Example 194] |  | 5.00 |  | 
31 | CCCCNC(=O)C1CCN(c2ccc(S(=O)(=O)C3(C(=O)NO)CCOCC3)cc2)CC1 [Example 181] |  | 5.00 |  | 
32 | COCCN1CCC(C(N)=O)(S(=O)(=O)c2ccc(Oc3ccc(OC(F)(F)F)cc3)cc2)CC1 [Example 444, 1-(2-methoxyethyl)-4-[[4-[4-(trifluoromethoxy)phenoxy]phenyl]sulfonyl]-4-piperidinecarboxamide] |  |  |  | pIC50 (recombinant human MMP-1): < 5.00
33 | N[C@H]1CCN(C(=O)C2CCN(c3ccc(S(=O)(=O)C4(C(=O)NO)CCOCC4)cc3)CC2)C1 [Example 175] |  | 5.00 |  | 
34 | C[C@@H]1CN(C(=O)C2CCCN(c3ccc(S(=O)(=O)C4(C(=O)NO)CCOCC4)cc3)C2)C[C@H](C)O1 (some centres unmarked) [Example 169] |  | 5.00 |  | 
35 | C#CCN1CCC(C(N)=O)(S(=O)(=O)c2ccc(Sc3ccccc3)cc2)CC1 [Example 445, 4-[(4-phenylthiophenyl)sulfonyl]-1-(2—propynyl)-4-piperidinecarboxamide] |  | < 5.00 |  | 
